# Measurements taken from patent US9956319B2, “Compositions useful as antibiofilm or antimicrobial agents and methods using same” (BAYLOR COLLEGE OF MEDICINE, priority 2012, dated 2018).
# Key:
# Assay type in all cases: cell-based
# [1] = tested on: methicillin-resistant Staphylococcus aureus (MRSA); test: Bacterial colony counts extracted from impregnated central venous catheters after incubation in bacterial suspension; conditions: 10^5 cfu/ml suspension in TSB, 37° C., 24 hours
# Procedure: (§1) In this example, segments of 7 French triple lumen polyurethane central venous catheters were impregnated with α-lipoic acid using the method described elsewhere (U.S. Pat. No. 6,589,591) and were subjected to zones of inhibition. Briefly, α-lipoic acid was dissolved in 88% formic acid (at a final solution concentration of 50 mg/ml). 85% ortho-Phosphoric acid and glycerol were then added to the solution at 79:8:13 (v/v/v) (formic acid:ortho-phosphoric acid:glycerol). After mixing the solution, 300 mg/ml of potassium chloride was added to the final solution and mixed.
# (§2) Catheter segments were then placed in the impregnating solution at 55° C. with agitation for 1 hour in the dark. Catheter segments were then removed from the solution and dried under a fume hood overnight in the dark. Catheter segments were rinsed with deionized water the next day and let dry for another 18 hours in the dark. After the impregnation process and drying, one-centimeter segments of impregnated catheters were individually placed in 1 ml of 10^5 cfu/ml suspensions of methicillin-sensitive Staphylococcus epidermidis (MSSE), methicillin-resistant Staphylococcus epidermidis (MRSE), methicillin-resistant Staphylococcus aureus (MRSA), Klebsiella pneumoniae, Escherichia coli, or Proteus mirabilis in trypticase soy broth (TSB) at 37° C. for 24 hours. One-centimeter segments of non-impregnated catheters were also incubated individually in each bacterial suspension at 37° C. for 24 hours as controls. Catheter segments were removed from each bacterial suspension after this period, shaken to remove excess broth containing free-floating bacteria from their surfaces, placed in 1 ml of normal saline, sonicated for 5 minutes, and vortexed for 30 seconds.
# (§3) Aliquots of each suspension and subsequent dilutions were cultured quantitatively.
# (§4) To evaluate the anticolonization/antimicrobial activity of central venous catheters treated with lipoamide, segments of 7 French triple lumen polyurethane central venous catheters were impregnated with lipoamide using the same patented method described in Example 1 (U.S. Pat. No. 6,589,591) with 100 mg/ml (final solution volume) of the agent. After the impregnation process and drying, Catheter segments were then placed in the impregnating solution at 55° C. with agitation for 1 hour in the dark. Catheter segments were then removed from the solution and dried under a fume hood overnight in the dark. Catheter segments were rinsed with deionized water the next day and let dry for another 18 hours in the dark. After the impregnation process and drying, one-centimeter segments of impregnated catheters were individually placed in 1 ml of 10^5 cfu/ml suspensions of MRSE, MRSA, or P. aeruginosa in trypticase soy broth (TSB) at 37° C. for 24 hours. One-centimeter segments of non-impregnated catheters were also incubated individually in each bacterial suspension at 37° C. for 24 hours as controls. Catheter segments were removed from each bacterial suspension after this period, shaken to remove excess broth containing free-floating bacteria from their surfaces, placed in 1 ml of normal saline, sonicated for 5 minutes, and vortexed for 30 seconds.
# (§5) To evaluate the anticolonization/antimicrobial activity of central venous catheters treated with dihydrolipoic acid, segments of 7 French triple lumen polyurethane central venous catheters were impregnated with dihydrolipoic acid using the same patented method described in Example 1 (U.S. Pat. No. 6,589,591) with 25 mg/ml (final solution volume) of the agent. After the impregnation process and drying, Catheter segments were then placed in the impregnating solution at 55° C. with agitation for 1 hour in the dark. Catheter segments were then removed from the solution and dried under a fume hood overnight in the dark. Catheter segments were rinsed with deionized water the next day and let dry for another 18 hours in the dark. […]
# [2] = tested on: methicillin-resistant Staphylococcus epidermidis (MRSE); test: as above; conditions: 10^5 cfu/ml suspension in TSB, 37° C., 24 hours
# Procedure: as §1, §2, §3, §4, §5
# [3] = tested on: vancomycin-resistant Enterococcus (VRE); test: Zones of inhibition of impregnated catheter segments, modified Kirby-Bauer method
# Procedure: To evaluate the antimicrobial activity of central venous catheters treated with α-lipoic acid or its combination with gentamicin, segments of 7 French triple lumen polyurethane central venous catheters were impregnated with α-lipoic acid, gentamicin, or the combination of lipoic acid and gentamicin using the same patented method described in Example 1 with 50 mg/ml of each agent (for the final solution volume). After the impregnation process and drying, zones of inhibition were performed on one-centimeter segments according to a modified Kirby-Bauer method against MSSE, MRSE, MRSA, K. pneumoniae, E. coli, P. mirabilis, Pseudomonas aeruginosa, and Candida albicans. Each segment was half embedded in the center of a Muller-Hinton agar plate that had been previously inoculated with an individual organism. Prior to placing the catheter segments in agar, each organism was grown for 18 hours in TSB to a concentration of 0.5 McFarland (10^8 cfu/ml). A cotton swab was placed in the suspension and streaked across the surface of the Muller-Hinton agar plate to cover the entire plate. All plates were placed in a 37° C. incubator for 24 hours. Zones were measured in mm after the incubation period (Table 2).
# (§6) To evaluate the antimicrobial activity of central venous catheters treated with lipoamide or its combination with levofloxacin, segments of 7 French triple lumen polyurethane central venous catheters were impregnated with levofloxacin or the combinations of lipoamide and levofloxacin using the same patented method described in Example 1 (U.S. Pat. No. 6,589,591) with 100 mg/ml (final solution volume) of each agent. […] Zones of inhibition were measured in mm after the incubation period (Table 4).
# as §6, with “doxycycline,” for “levofloxacin,”, “doxycycline” for “levofloxacin”, “5).” for “4).”
# as §6, with “dihydrolipoic acid,” for “lipoamide or its combination with levofloxacin,”, “dihydrolipoic acid” for “levofloxacin or the combinations of lipoamide and levofloxacin”, “25” for “100”, “the” for “each”, “6).” for “4).”
# [4] = catheter impregnated with 25 mg/ml
# [5] = catheter impregnated with 100 mg/ml
# [6] = catheter impregnated with 50 mg/ml
structure (smiles),measurement,setting,value
"O=C(O)CCCCC(S)CCS (centres unmarked) [Dihydrolipoic acid, 6,8-dimercaptooctanoic acid]",Mean bacterial colony counts extracted from catheter,[1]; [4],50
same,Mean bacterial colony counts extracted from catheter,[2]; [4],380
same,Zones of inhibition,[3]; catheter impregnated with 25 mg/ml of the agent,14 mm
"NC(=O)CCCCC1CCSS1 (centres unmarked) [Lipoamide, lipoamide]",Mean bacterial colony counts extracted from catheter,[1]; [5],0
same,Mean bacterial colony counts extracted from catheter,[2]; [5],0
same,zone of inhibition at 100000 µg/mL,"[3]; Enterococcus, catheter impregnated with 100 mg/ml of each agent",4 mm
"O=C(O)CCCCC1CCSS1 (centres unmarked) [Lipoic acid, 1,2-dithiolane-3-pentanoic acid]",Bacterial colony counts extracted from central venous catheters,[1]; [6],0
same,Bacterial colony counts extracted from central venous catheters,[2]; [6],60
